Measured values from patent US20240181007A1, “COMPOSITIONS AND METHODS FOR TREATING PULMONARY HYPERTENSION” (Acceleron Pharma Inc., priority 2021, published 2024).

Tested on: TAC-PH mice
Assay: Transverse aortic constriction (TAC) induced PH mouse model, BALB/cJ (Example 12)
Assay type: in vivo
Settings: day 42, relative to TAC PBS
Text: The effects of an ActRIIA-mFc fusion polypeptide (SEQ ID NO: 56) was examined in a mouse model of left ventricular systolic dysfunction (also referred to as HErEF) of pulmonary hypertension (PH) and valvular heart disease. In this model, BALB/cJ mice underwent transverse aortic constriction (TAC) to induce left heart failure, and right heart and pulmonary remodeling. See, e.g., Xiong P Y. et al. Hypertension 2018, 71(1):34-55 and Chen Y. et al. Hypertension 2012, 59(6):1170-1178.
Forty-four BALB/cJ male mice (10 wks old) underwent TAC surgery and fourteen age-matched animals underwent a mock surgical procedure (Sham) at day 0. Two weeks after the surgery, TAC-PH mice were randomized into three groups. i) fourteen mice were injected subcutaneously with vehicle control (phosphate buffered saline (PBS)), twice weekly for 4 weeks starting from day 14 after surgery, “TAC PBS”; ii) fifteen mice were injected subcutaneously with ActRIIA-mFc at a dose of 3 mg/kg twice weekly for 4 weeks starting from day 14 after TAC surgery, “TAC ActRIIA-mFc 3 mpk”; and iii) fifteen mice were injected subcutaneously with ActRIIA-mFc at a dose of 10 mg/kg twice weekly for 4 weeks starting from day 14 after TAC surgery, “TAC ActRIIA-mFc 10 mpk.” At the end of the study, echocardiography and pressure-volume catheter were performed to measure left and right ventricular remodeling and functional changes before animals were euthanized for heart and lung collection. Hearts and lungs of each mouse were weighed, fixed in 10% formalin, embedded in paraffin, and sectioned for Masson's trichrome stain to assess fibrosis.
Prior to euthanasia, in vivo cardiac function was assessed by transthoracic echocardiography (Acuson P300, 18 MHz transducer; Siemens) in conscious mice. From left ventricle (LV) short axis view, M-mode echocardiogram was acquired to measure left ventricle end diastolic diameter (LVEDD), and left ventricle end systolic diameter (LVESD). Fractional shortening (FS) was calculated from the end-diastolic diameter (EDD) and end-systolic diameter (ESD) using the following equation: FS=100%×[(EDD−ESD)/EDD]. Early diastolic filling peak velocity (E), early diastolic mitral annular velocity (E′), and isovolumetric relaxation time (IVRT) were measured from the medial or septal wall at the mitral valve level from tissue Doppler image. LV diastolic function was assessed by measuring the E/E′ ratio and IVRT. Three to five beats were averaged for each mouse measurement. RV free wall thickness (RVFWT) was measured using M-mode in a modified parasternal long-axis view through the aortic valve. Pulmonary artery acceleration time (PAAT) was measured as the time from start to peak velocity of blood flow in the lumen of the main pulmonary artery distal to the pulmonary valve as obtained from the pulse-wave doppler recording.
On day 42, mice were anesthetized by an intraperitoneal injection of ketamine/xylazine (100/5 mg/kg) to evaluate left and right ventricular function by Millar pressure-volume conductance catheter. The respiration was supported by a small animal ventilator.
Thoracotomy was made through 4-5 intercostal space, and the heart was exposed. A pressure-volume catheter (1.0-Fr, PVR-1035, Millar Instruments, Houston, TX, USA) was inserted into the left ventricle and right ventricle from the apex. Ventricular pressure and volume were calculated with LabChart 7 software. Ejection fraction was derived. Afterwards, animals were euthanized for heart and lung collection. Cardiac hypertrophy was measured by heart weight (HW) normalized by tibial length (TL). Left ventricle (LV), right ventricle (RV) and lung of each mouse were separated, fixed in 10% formalin, embedded in paraffin, and sectioned for Masson's trichrome stain to assess fibrosis. Serum and urine samples were collected at the end of the study.

Substance: ActRIIA-mFc: ActRIIA-mFc fusion polypeptide (SEQ ID NO: 56); extracellular domain fused to murine IgG2a Fc domain with a linker
- LV ejection fraction (3 mpk or 10 mpk s.c. twice weekly for 4 weeks from day 14 after TAC, FIG. 45): restored LV ejection fraction
- cardiac hypertrophy, heart weight/tibia length (HW/TL) (3 mpk or 10 mpk s.c. twice weekly for 4 weeks from day 14 after TAC, FIG. 46): significantly reduced cardiac hypertrophy
- IVRT (3 mpk or 10 mpk s.c. twice weekly for 4 weeks from day 14 after TAC, FIG. 48): reduced IVRT
- RVSP (3 mpk or 10 mpk s.c. twice weekly for 4 weeks from day 14 after TAC, FIG. 49): reduced RVSP
- RVFWT (3 mpk or 10 mpk s.c. twice weekly for 4 weeks from day 14 after TAC, FIG. 50): significantly reduced elevated RVFWT
- PAAT (3 mpk or 10 mpk s.c. twice weekly for 4 weeks from day 14 after TAC, FIG. 51): increased PAAT
- LV fibrosis (3 mpk or 10 mpk s.c. twice weekly for 4 weeks from day 14 after TAC, FIG. 52): significantly reduced
- RV fibrosis (3 mpk or 10 mpk s.c. twice weekly for 4 weeks from day 14 after TAC, FIG. 53): significantly reduced
- lung fibrosis (3 mpk or 10 mpk s.c. twice weekly for 4 weeks from day 14 after TAC, FIG. 54): significantly reduced lung fibrosis
- E/E′ ratio (3 mpk s.c. twice weekly for 4 weeks from day 14 after TAC, FIG. 47): reduced E/E′ ratio at 3 mpk
